Assay results as given in US20250120922A1, “COMPOSITION FOR IMPROVING COW REPRODUCTIVE ABILITY” (SOLOMON CO., LTD., priority 2022, published 2025).
“And” between values parts separate entries of the source, which are not always exact repeats. Equal entries are not always repeated.

System: cows after calving
Experiment: Effect of improving cow reproductive ability (first return to estrus after calving, composition mounted on the leash)
Assay type: in vivo
Details: for First return to estrus day after calving: leash mounting type, 3 heads
Description: The mixture was poured into a wax tray and completely hardened to prepare a composition for improving cow reproductive ability.
By using the composition prepared in Example 2, the effect of improving the cow reproductive ability was confirmed after being mounted on the leash of cows after calving. The first return to estrus after calving was generally known to be 60 to 90 days, and in the experiment, confirmed to be average 84.20±6.64 in the case of cow used as a control group.

Cc1ccc(O)cc1 [p-cresol]
First return to estrus day after calving (1% p-cresol in paraffin wax block): 46 ± 4 days | First return to estrus day after calving (5% p-cresol in paraffin wax block): 28 days and 28 ± 4 days | Return of estrus earlier than the earliest normal return time of estrus (approximately 45 days after calving) (5% p-cresol pheromone block): about 17 days
